Some test systems named below: ACHN renal; UO-31 renal; OVCAR-4 ovarian; BT-549 breast; CCRF-CEM leukemia; IGROV1 ovarian; U251 CNS; UACC-62 melanoma; SNB-19 CNS; SK-OV-3 ovarian.
What all share (test): NCI-60 cell line screen, 48 h

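Step 1: Grow cells in 96-well plates. Step 2: Expose to compound for 48 hours at 5 concentrations. Step 3: Interpolate endpoints linearly; if unreached, use highest concentration. GI50 marks 50% less growth. TGI is the concentration that stops growth completely.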

`CN(C)Cc1c[nH]c2nc[nH]c(=O)c12`: the TGI in the experiment with ACHN renal was more than 100 µM; in the experiment on UO-31 renal, more than 100 µM; with OVCAR-4 ovarian it was more than 100 µM; in the experiment on BT-549 breast, more than 100 µM; in the experiment on CCRF-CEM leukemia, 51 µM; in the experiment on IGROV1 ovarian, more than 100 µM. Further, the TGI with U251 CNS is more than 100 µM; in the experiment on UACC-62 melanoma it was 39.7 µM; in the experiment with SNB-19 CNS, more than 100 µM; in the experiment with SK-OV-3 ovarian, more than 100 µM.

On to `O=C1C=CC(=O)N1c1ccc2ccccc2c1`, for which the GI50 in the experiment with ACHN renal is 4.66 µM; with UO-31 renal, 12.4 µM; in the experiment on OVCAR-4 ovarian, 8.92 µM; with BT-549 breast, 14.3 µM; with CCRF-CEM leukemia, 2.09 µM; in the experiment with IGROV1 ovarian it was 16.6 µM. The GI50 with U251 CNS was 17.8 µM; with UACC-62 melanoma, 16.1 µM; in the experiment on SNB-19 CNS, 38.4 µM; with SK-OV-3 ovarian, 27.4 µM. For the same compound, the TGI in the experiment with ACHN renal came to 15.4 µM; with UO-31 renal it was 25.1 µM; in the experiment on OVCAR-4 ovarian, 34.1 µM; with BT-549 breast, 27.8 µM; in the experiment on CCRF-CEM leukemia, 7.94 µM; with IGROV1 ovarian, 52 µM. Besides, the TGI in the experiment with U251 CNS was 33.8 µM; in the experiment with UACC-62 melanoma, 29.8 µM; in the experiment with SNB-19 CNS, more than 100 µM; in the experiment with SK-OV-3 ovarian it was 78.5 µM.

Take `Cc1cc(N)c2cc(NC(=O)/C=C\c3ccccc3Cl)ccc2n1`: the GI50 was 1.83 µM in the experiment with ACHN renal; 1.78 µM in the experiment on UO-31 renal; 0.365 µM with OVCAR-4 ovarian; 1.58 µM with BT-549 breast; 0.204 µM in the experiment on CCRF-CEM leukemia; 1.61 µM with IGROV1 ovarian. Moreover, the GI50 in the experiment on U251 CNS is 0.269 µM; in the experiment with UACC-62 melanoma, 1.05 µM; in the experiment on SNB-19 CNS, 1.56 µM; in the experiment on SK-OV-3 ovarian, 1.85 µM. In addition, the TGI with ACHN renal turned out to be 3.26 µM; in the experiment with UO-31 renal it was 3.22 µM; with OVCAR-4 ovarian, 0.971 µM; with BT-549 breast, 3.01 µM; with CCRF-CEM leukemia, 0.448 µM; in the experiment with IGROV1 ovarian, 3.07 µM. Further, the TGI amounted to 0.724 µM in the experiment on U251 CNS, 2.49 µM with UACC-62 melanoma, 2.95 µM in the experiment with SNB-19 CNS and 3.27 µM in the experiment with SK-OV-3 ovarian.

`CCOC(=O)CCC(NC(=O)c1ccc(Oc2nc3cc(N)cc(N)c3nc2-c2ccccc2)cc1)C(=O)OCC` (stereo not given): the GI50 was 28.5 µM in the experiment with ACHN renal; 48.7 µM in the experiment on UO-31 renal; 35.6 µM with OVCAR-4 ovarian; 33.7 µM with BT-549 breast; 12.4 µM with CCRF-CEM leukemia; 18.2 µM in the experiment on IGROV1 ovarian. Besides, the GI50 in the experiment with U251 CNS was more than 100 µM; in the experiment with UACC-62 melanoma it was 16.1 µM; in the experiment with SNB-19 CNS, 31.6 µM; in the experiment on SK-OV-3 ovarian, 27.9 µM. Besides, the TGI in the experiment on ACHN renal was more than 100 µM; in the experiment on UO-31 renal, more than 100 µM; in the experiment with OVCAR-4 ovarian, more than 100 µM; in the experiment with BT-549 breast, more than 100 µM; in the experiment with CCRF-CEM leukemia it was more than 100 µM; with IGROV1 ovarian, 78.7 µM. For the same compound, the TGI in the experiment with U251 CNS is more than 100 µM; in the experiment with UACC-62 melanoma it was 31 µM; in the experiment on SNB-19 CNS it was more than 100 µM; in the experiment with SK-OV-3 ovarian, 97.7 µM.

On to `CC(=O)OC1CCC2(C)C(=CCC3C2CCC2(C)C3CC3OC4(CCC(C)CN4)C(C)C32)C1` (stereo not given), for which the TGI with ACHN renal, in the experiment with UO-31 renal, in the experiment with OVCAR-4 ovarian, with BT-549 breast, with CCRF-CEM leukemia and in the experiment with IGROV1 ovarian was more than 100 µM throughout. For the same compound, the TGI in the experiment with U251 CNS, in the experiment with UACC-62 melanoma, in the experiment on SNB-19 CNS and in the experiment with SK-OV-3 ovarian was more than 100 µM throughout.

With `COc1cccc2c1C(=O)c1c(O)c3c(c(O)c1C2=O)C[C@@](O)(C(=O)CO)C[C@@H]3OC1CC2C(OCN2CN2COC3C(C)OC(O[C@H]4C[C@](O)(C(=O)CO)Cc5c(O)c6c(c(O)c54)C(=O)c4c(OC)cccc4C6=O)CC32)C(C)O1` (stereo not given in full), the GI50 in the experiment with ACHN renal is 0.00194 µM; in the experiment on UO-31 renal, 0.00304 µM; with OVCAR-4 ovarian it was 0.0222 µM; in the experiment on BT-549 breast it was 0.024 µM; in the experiment on CCRF-CEM leukemia it was 0.000537 µM; in the experiment with IGROV1 ovarian, 0.0014 µM. The GI50 was 0.00291 µM in the experiment on U251 CNS, 0.0032 µM in the experiment with UACC-62 melanoma, 0.00292 µM with SNB-19 CNS and 0.00699 µM in the experiment on SK-OV-3 ovarian. For the same compound, the TGI with ACHN renal is 0.0345 µM; with UO-31 renal it was 0.0283 µM; with OVCAR-4 ovarian, 0.0593 µM; in the experiment with BT-549 breast, more than 0.46 µM; in the experiment with CCRF-CEM leukemia, 0.0221 µM; with IGROV1 ovarian, 0.127 µM. For the same compound, the TGI in the experiment with U251 CNS is 0.0979 µM; in the experiment with UACC-62 melanoma, 0.0159 µM; with SNB-19 CNS, 0.0256 µM; in the experiment on SK-OV-3 ovarian, 0.0207 µM.

With `O=C1/C(=C/c2ccc([N+](=O)[O-])s2)Oc2ccc(Br)cc21`, the GI50 with ACHN renal was 0.199 µM; in the experiment with UO-31 renal, 0.166 µM; in the experiment with OVCAR-4 ovarian it was 0.352 µM; in the experiment with BT-549 breast, 0.257 µM; with CCRF-CEM leukemia, 0.31 µM; with IGROV1 ovarian, 0.309 µM. In addition, the GI50 in the experiment with U251 CNS was 0.211 µM; in the experiment on UACC-62 melanoma it was 0.297 µM; in the experiment on SNB-19 CNS, 0.42 µM; in the experiment with SK-OV-3 ovarian it was 2.09 µM. The TGI in the experiment on ACHN renal amounted to 0.414 µM; in the experiment on UO-31 renal it was 0.346 µM; in the experiment on OVCAR-4 ovarian, 1.43 µM; in the experiment on BT-549 breast, 0.741 µM; in the experiment with CCRF-CEM leukemia, 0.961 µM; in the experiment on IGROV1 ovarian, 0.964 µM. Moreover, the TGI in the experiment on U251 CNS worked out at 0.482 µM; with UACC-62 melanoma, 0.963 µM; with SNB-19 CNS, 2.13 µM; in the experiment with SK-OV-3 ovarian, 5.04 µM.

Consider `O=C(N/N=C/c1coc2ccc(Cl)cc2c1=O)c1cc(O)c(O)c(O)c1`, for which the GI50 was 22.1 µM in the experiment with ACHN renal; 40 µM in the experiment with UO-31 renal; 98.4 µM in the experiment on OVCAR-4 ovarian; 23.3 µM in the experiment on BT-549 breast; 33.2 µM in the experiment on CCRF-CEM leukemia; 44.5 µM in the experiment on IGROV1 ovarian. Besides, the GI50 with U251 CNS was 22.2 µM; in the experiment with UACC-62 melanoma, 19.8 µM; with SNB-19 CNS, 72.8 µM; in the experiment with SK-OV-3 ovarian, more than 100 µM. Further, the TGI in the experiment on ACHN renal is 52.5 µM; in the experiment on UO-31 renal, more than 100 µM; in the experiment with OVCAR-4 ovarian it was more than 100 µM; in the experiment on BT-549 breast, 96.6 µM; in the experiment on CCRF-CEM leukemia, more than 100 µM; with IGROV1 ovarian, more than 100 µM. The TGI was 57.2 µM in the experiment with U251 CNS, 40.1 µM in the experiment on UACC-62 melanoma, more than 100 µM in the experiment with SNB-19 CNS and more than 100 µM in the experiment on SK-OV-3 ovarian.

Turning to `CCN(CC)CCNc1ccc2nc(C)n3c4ccc(OC)cc4c(=O)c1c23`, the TGI was 13.3 µM in the experiment on ACHN renal; 16.3 µM in the experiment with UO-31 renal; 8.25 µM with OVCAR-4 ovarian; 22.5 µM in the experiment on BT-549 breast; 1.19 µM in the experiment on CCRF-CEM leukemia; 4.26 µM with IGROV1 ovarian. Besides, the TGI in the experiment on U251 CNS was determined as 20.6 µM; with UACC-62 melanoma, 20 µM; with SNB-19 CNS it was 13.7 µM; with SK-OV-3 ovarian, 19.5 µM.

Take `C=CCC(NCc1ccccc1)c1cn(C(=O)OCC)c2ccccc12` (stereo not given): the GI50 in the experiment with ACHN renal is 18.5 µM; in the experiment on UO-31 renal it was 30.4 µM; with OVCAR-4 ovarian it was 51.5 µM; in the experiment with BT-549 breast, 21.3 µM; in the experiment on CCRF-CEM leukemia, 19.4 µM; with IGROV1 ovarian it was 18.5 µM. For the same compound, the GI50 was 19.2 µM in the experiment with U251 CNS, 22.6 µM in the experiment on UACC-62 melanoma, 64.3 µM with SNB-19 CNS and 44.7 µM in the experiment with SK-OV-3 ovarian. Moreover, the TGI in the experiment on ACHN renal is 36.5 µM; with UO-31 renal, more than 100 µM; with OVCAR-4 ovarian, more than 100 µM; with BT-549 breast, 46.9 µM; in the experiment with CCRF-CEM leukemia, 42.1 µM; in the experiment on IGROV1 ovarian, 71.7 µM. Further, the TGI in the experiment on U251 CNS was 39.3 µM; in the experiment with UACC-62 melanoma, 50.6 µM; in the experiment on SNB-19 CNS it was more than 100 µM; in the experiment on SK-OV-3 ovarian, more than 100 µM.

Take `Cc1ccc(S(=O)(=O)NC(=O)Nc2ncn[nH]2)cc1`: the TGI in the experiment on ACHN renal, in the experiment on UO-31 renal, with OVCAR-4 ovarian, in the experiment with BT-549 breast, with CCRF-CEM leukemia and with IGROV1 ovarian was more than 100 µM throughout. The TGI in the experiment on U251 CNS, in the experiment with UACC-62 melanoma, in the experiment with SNB-19 CNS and in the experiment on SK-OV-3 ovarian was more than 100 µM in each case.

As to `CCc1n(Cc2ccc3ccccc3c2)cc[n+]1Cc1ccc2ccccc2c1`, the GI50 in the experiment with ACHN renal is 2.87 µM; with UO-31 renal, 2.22 µM; with OVCAR-4 ovarian, 0.307 µM; in the experiment with BT-549 breast it was 0.674 µM; in the experiment on CCRF-CEM leukemia it was 0.922 µM; in the experiment on IGROV1 ovarian, 0.736 µM. Besides, the GI50 with U251 CNS is 0.578 µM; in the experiment with UACC-62 melanoma, 0.507 µM; in the experiment with SNB-19 CNS, 0.492 µM; in the experiment with SK-OV-3 ovarian, 1.46 µM. The TGI is 10 µM in the experiment on ACHN renal; 8.86 µM in the experiment with UO-31 renal; 1.28 µM in the experiment on OVCAR-4 ovarian; 2.12 µM in the experiment with BT-549 breast; 4.34 µM with CCRF-CEM leukemia; 2.32 µM with IGROV1 ovarian. Further, the TGI with U251 CNS was 2.2 µM; in the experiment with UACC-62 melanoma, 2 µM; in the experiment with SNB-19 CNS, 1.82 µM; with SK-OV-3 ovarian, 5.73 µM.

`CC12CC(Br)(Br)C(=O)C3C1CCCC32`: the TGI came to 15.5 µM in the experiment with ACHN renal; 15 µM in the experiment on UO-31 renal; 10.4 µM in the experiment on OVCAR-4 ovarian; 5.04 µM in the experiment on BT-549 breast; 9.43 µM in the experiment with CCRF-CEM leukemia; 27.2 µM in the experiment on IGROV1 ovarian. The TGI with U251 CNS stood at 25.9 µM; in the experiment on UACC-62 melanoma, 19.7 µM; in the experiment with SNB-19 CNS, 28.8 µM; in the experiment on SK-OV-3 ovarian it was 30.8 µM.

The record behind these values is PubChem BioAssay (NCI).
